Tests used:
Tyrosinase = target: T1, Tyrosinase (Agaricus bisporus, UniProt O42713)
T1 sequence (O42713 whole entry): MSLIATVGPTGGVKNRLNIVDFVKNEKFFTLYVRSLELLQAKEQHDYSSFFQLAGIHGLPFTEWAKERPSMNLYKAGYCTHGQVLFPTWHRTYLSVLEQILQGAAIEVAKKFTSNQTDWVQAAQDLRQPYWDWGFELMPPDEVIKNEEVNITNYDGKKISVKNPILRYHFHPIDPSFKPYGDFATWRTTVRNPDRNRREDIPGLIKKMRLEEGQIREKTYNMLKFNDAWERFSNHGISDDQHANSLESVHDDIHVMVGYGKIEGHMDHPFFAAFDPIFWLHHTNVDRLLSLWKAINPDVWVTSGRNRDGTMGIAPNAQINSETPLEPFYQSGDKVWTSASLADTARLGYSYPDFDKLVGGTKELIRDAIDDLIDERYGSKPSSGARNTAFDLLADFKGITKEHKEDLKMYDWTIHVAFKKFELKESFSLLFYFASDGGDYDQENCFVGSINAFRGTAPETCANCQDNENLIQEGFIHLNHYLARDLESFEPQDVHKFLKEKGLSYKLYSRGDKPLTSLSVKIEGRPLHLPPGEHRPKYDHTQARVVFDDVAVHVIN
Description: Inhibition of mushroom tyrosinase after 20 mins by microplate reader analysis

RAW264.7 [1] = assay: cells; conditions: Mus musculus
Description: Antiinflammatory activity in mouse RAW264.7 cells assessed as inhibition of LPS-induced nitric oxide production treated for 30 mins before LPS challenge measured after 24 hrs by Griess reagent method

RAW264.7 [2] = assay: cells; conditions: Mus musculus, RAW264.7, 24 h
Description: Cytotoxicity against mouse RAW264.7 cells after 24 hrs by MTT assay

| IC50 (Tyrosinase) [µM] | IC50 (RAW264.7 [1]) [µM] | IC50 (RAW264.7 [2]) [µM] | Compound |
| --- | --- | --- | --- |
| 0.087 | 56.9 | > 100 | O=c1cc(CSC2CCCCC2)occ1O |
| 79 | > 100 | > 100 | O=c1cc(C[S+]([O-])C2CCCCC2)occ1O (configuration not stated) |
| 0.097 | 62 | > 100 | CCCCCSCc1cc(=O)c(O)co1 |
| 0.19 | 25.8 | > 100 | CCCCCCSCc1cc(=O)c(O)co1 |
| 49.1 | > 100 | > 100 | CCCCCCS(=O)(=O)Cc1cc(=O)c(O)co1 |
| 76.6 | > 100 | > 100 | CCCCCS(=O)(=O)Cc1cc(=O)c(O)co1 |
| 79.9 | > 100 | > 100 | CCCCC[S+]([O-])Cc1cc(=O)c(O)co1 (configuration not stated) |
| 69 | > 100 | > 100 | O=c1cc(CS(=O)(=O)C2CCCCC2)occ1O |
| 2.6 | > 100 | > 100 | CCSCc1cc(=O)c(O)co1 |
| 2.65 | > 100 | 98.3 | CCCCCCCSCc1cc(=O)c(O)co1 |
| 73.8 | > 100 | > 100 | CCCCCC[S+]([O-])Cc1cc(=O)c(O)co1 (configuration not stated) |
| 1.93 | > 100 | > 100 | CCCSCc1cc(=O)c(O)co1 |
| 1.48 | > 100 | > 100 | CCCCSCc1cc(=O)c(O)co1 |
| 46.2 | > 100 | > 100 | CCCCCCCCSCc1cc(=O)c(O)co1 |

— ChEMBL document CHEMBL1268992, “Kojyl thioether derivatives having both tyrosinase inhibitory and anti-inflammatory properties” (Bioorg Med Chem Lett, 2010)
